Ratio, Ki and IC50 data for 13 compounds are collected here from ChEMBL document CHEMBL1142727 (J Med Chem, 2005).

Assay [1] in a line: Inhibitory ratio for bovine acetylcholinesterase and equine butyrylcholinesterase.
In assay [2] the target is T1, Acetylcholinesterase (Bos taurus, UniProt P23795).
T1 sequence (P23795 whole entry): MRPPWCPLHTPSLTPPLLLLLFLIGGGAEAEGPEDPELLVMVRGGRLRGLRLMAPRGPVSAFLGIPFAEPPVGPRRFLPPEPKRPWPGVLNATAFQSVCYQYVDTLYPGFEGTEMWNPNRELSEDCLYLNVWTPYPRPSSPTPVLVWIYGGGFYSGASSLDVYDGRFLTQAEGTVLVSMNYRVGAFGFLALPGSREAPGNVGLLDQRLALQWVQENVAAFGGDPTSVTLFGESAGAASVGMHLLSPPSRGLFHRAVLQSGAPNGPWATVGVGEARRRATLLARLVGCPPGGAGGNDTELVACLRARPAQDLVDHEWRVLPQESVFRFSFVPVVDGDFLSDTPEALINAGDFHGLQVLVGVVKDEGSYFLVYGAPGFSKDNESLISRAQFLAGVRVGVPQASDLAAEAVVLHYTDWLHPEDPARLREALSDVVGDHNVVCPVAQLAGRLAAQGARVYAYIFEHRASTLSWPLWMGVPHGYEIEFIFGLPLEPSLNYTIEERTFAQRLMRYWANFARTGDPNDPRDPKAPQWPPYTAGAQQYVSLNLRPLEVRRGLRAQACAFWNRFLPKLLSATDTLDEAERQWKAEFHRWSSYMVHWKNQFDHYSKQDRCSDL
Description: Dissociation constant for inhibition of fetal bovine serum Acetylcholinesterase

Assay [3] concerns the target Butyrylcholinesterase (Equus caballus, UniProt Q9N1N9).
Description: Dissociation constant for inhibition of equine Butyrylcholinesterase (BuChE)
Assay [4] deals with Cholinesterase (Homo sapiens, UniProt P06276). Description: Inhibitory concentration against human butyrylcholinesterase.
The target in assay [5] is Acetylcholinesterase (Homo sapiens, UniProt P22303). Put plainly: Inhibitory concentration against human Acetylcholinesterase.
Chain of Acetylcholinesterase (Homo sapiens, UniProt P22303) (P22303 whole entry): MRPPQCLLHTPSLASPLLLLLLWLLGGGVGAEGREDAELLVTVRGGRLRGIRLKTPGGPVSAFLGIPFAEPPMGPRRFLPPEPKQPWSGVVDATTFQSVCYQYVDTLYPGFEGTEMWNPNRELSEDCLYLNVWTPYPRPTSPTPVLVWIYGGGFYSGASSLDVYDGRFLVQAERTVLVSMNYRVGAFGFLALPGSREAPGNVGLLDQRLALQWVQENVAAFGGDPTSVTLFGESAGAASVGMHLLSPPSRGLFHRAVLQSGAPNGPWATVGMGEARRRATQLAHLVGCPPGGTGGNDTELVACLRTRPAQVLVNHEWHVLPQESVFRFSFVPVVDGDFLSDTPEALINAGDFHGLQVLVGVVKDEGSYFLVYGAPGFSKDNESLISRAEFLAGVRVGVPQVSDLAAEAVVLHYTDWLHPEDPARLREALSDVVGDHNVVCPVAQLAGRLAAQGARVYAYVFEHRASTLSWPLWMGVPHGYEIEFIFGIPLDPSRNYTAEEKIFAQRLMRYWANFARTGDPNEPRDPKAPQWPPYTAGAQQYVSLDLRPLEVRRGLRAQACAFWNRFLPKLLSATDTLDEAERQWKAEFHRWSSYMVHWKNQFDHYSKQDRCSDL

Chain of Cholinesterase (P06276 whole entry): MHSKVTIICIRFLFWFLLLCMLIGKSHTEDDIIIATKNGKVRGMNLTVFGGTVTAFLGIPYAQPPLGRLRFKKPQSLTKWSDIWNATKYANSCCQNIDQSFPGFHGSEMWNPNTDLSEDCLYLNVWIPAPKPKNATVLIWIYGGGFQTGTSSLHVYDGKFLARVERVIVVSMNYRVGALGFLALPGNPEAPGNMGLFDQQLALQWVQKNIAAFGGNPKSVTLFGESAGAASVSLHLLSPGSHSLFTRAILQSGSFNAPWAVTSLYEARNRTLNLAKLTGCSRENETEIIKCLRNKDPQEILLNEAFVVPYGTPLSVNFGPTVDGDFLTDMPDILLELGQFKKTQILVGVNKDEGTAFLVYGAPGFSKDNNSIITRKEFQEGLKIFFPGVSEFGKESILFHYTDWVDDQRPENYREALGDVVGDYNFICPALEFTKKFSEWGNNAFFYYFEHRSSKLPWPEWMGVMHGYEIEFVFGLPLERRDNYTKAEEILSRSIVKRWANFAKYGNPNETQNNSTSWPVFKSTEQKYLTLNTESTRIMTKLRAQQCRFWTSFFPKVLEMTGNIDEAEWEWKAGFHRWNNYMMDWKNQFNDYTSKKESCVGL
Chain of Butyrylcholinesterase (Q9N1N9 whole entry): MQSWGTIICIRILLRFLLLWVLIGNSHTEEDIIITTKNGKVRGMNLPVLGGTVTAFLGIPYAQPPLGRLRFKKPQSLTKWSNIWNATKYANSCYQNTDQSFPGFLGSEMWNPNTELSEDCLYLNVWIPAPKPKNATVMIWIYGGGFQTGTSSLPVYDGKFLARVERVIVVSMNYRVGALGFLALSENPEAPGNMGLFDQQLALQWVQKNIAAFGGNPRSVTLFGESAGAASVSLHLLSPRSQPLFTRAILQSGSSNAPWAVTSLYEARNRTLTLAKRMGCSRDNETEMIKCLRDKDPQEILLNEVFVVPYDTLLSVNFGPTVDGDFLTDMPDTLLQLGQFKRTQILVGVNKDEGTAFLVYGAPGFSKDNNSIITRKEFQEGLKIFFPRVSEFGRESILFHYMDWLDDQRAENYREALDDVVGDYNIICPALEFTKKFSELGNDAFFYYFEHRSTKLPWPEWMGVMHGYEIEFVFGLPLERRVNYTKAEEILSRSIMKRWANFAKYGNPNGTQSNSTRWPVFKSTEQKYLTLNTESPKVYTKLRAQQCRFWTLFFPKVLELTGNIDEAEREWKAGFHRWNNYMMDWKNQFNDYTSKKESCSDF

`CN(CCCCSc1c2c(nc3ccccc13)CCCC2)CCCNc1c2c(nc3ccccc13)CCCC2`: the Ratio in assay [1] was found to be 191. Also, the Ki stood at 130 nM in assay [2] and 0.68 nM in assay [3].

On to `CC(=O)N(CCCCSc1c2c(nc3ccccc13)CCCC2)CCCNc1c2c(nc3ccccc13)CCCC2`, for which the Ratio in assay [1] turned out to be 427. The Ki in assay [2] worked out at 47 nM; in assay [3], 0.11 nM.

The compound `c1ccc2c(NCCCCCCCCSc3c4c(nc5ccccc35)CCCC4)c3c(nc2c1)CCCC3` registered an IC50 in assay [4] of 0.77 nM. Besides, the Ratio in assay [1] is 625.

On to `c1ccc2c(NCCCCCNc3c4c(nc5ccccc35)CCCC4)c3c(nc2c1)CCCC3`, for which the Ratio in assay [1] amounted to 2.1. The results for the Ki in assay [2] and in assay [3] were 210 nM and 100 nM, respectively.

Take `CC(=O)N(CCCNc1c2c(nc3ccccc13)CCCC2)CCCNc1c2ccccc2nc2ccccc12`: in assay [4], 3.9 nM corresponded to half-maximal inhibition (IC50). In assay [1], the Ratio is 750. For the same compound, the Ki in assay [2] is 1500 nM; in assay [3], 2 nM.

For the compound `CN(CCCNc1c2c(nc3ccccc13)CCCC2)CCCSc1c2c(nc3ccccc13)CCCC2`, the Ratio in assay [1] was 2.2. For the same compound, the Ki stood at 9.1 nM in assay [2] and 4.2 nM in assay [3].

Consider `CC(=O)N(CCCNc1c2c(nc3ccccc13)CCCC2)CCCSc1c2c(nc3ccccc13)CCCC2`, for which the Ratio in assay [1] came to 217. Further, the figures for the Ki in assay [2] and in assay [3] were 50 nM and 0.23 nM, respectively.

Regarding `C=CCN(CCCNc1c2c(nc3ccccc13)CCCC2)CCCNc1c2ccccc2nc2ccccc12`, the Ratio in assay [1] was found to be 2.1. The figures for the Ki in assay [2] and in assay [3] were 1.6 nM and 0.76 nM, respectively.

Turning to `CN(CCCNc1c2c(nc3ccccc13)CCCC2)CCCNc1c2c(nc3ccccc13)CCCC2`, the IC50 in assay [4] turned out to be 10.4 nM; in assay [5] it was 0.3 nM. The Ratio in assay [1] was 0.01.

With `c1ccc2c(NCCCCCCCSc3c4c(nc5ccccc35)CCCC4)c3c(nc2c1)CCCC3`, the Ratio in assay [1] was 9.7.

`CCN(CC)C(C)CN1c2ccccc2Sc2ccccc21` (stereo not given) [ETHOPROPAZINE] showed a Ki in assay [3] of 20 nM. In other words, the double-digit nanomolar range.

Take `OCCN(CCCNc1c2c(nc3ccccc13)CCCC2)CCCNc1c2ccccc2nc2ccccc12`: in assay [1], the Ratio was 0.2. For the same compound, the Ki in assay [2] was 0.65 nM; in assay [3], 3.3 nM.

For the compound `c1ccc2c(NCCCCCCCCCSc3c4c(nc5ccccc35)CCCC4)c3c(nc2c1)CCCC3`, the Ratio in assay [1] came out at 86. Moreover, the Ki in assay [2] was 195 nM; in assay [3] it was 2.3 nM.

Broadly, the Ki is a dissociation constant, usually derived from enzyme kinetics or from competition with a known ligand. What is called IC50 is the point on the concentration scale where inhibition reaches its midpoint. A lower IC50 goes with greater potency in that assay.
